Values joined by “and” are separate entries in the source; they are usually repeats but may differ in a detail not shown here. Identical values can stand only once.
Test system: peripheral blood lymphocytes collected from swine exposed to ASFV
Assay type: cell-based

Substance	Number of Spots
1212 (TFLLKKRMEL) [compound 1212]	19
1227 (ETYARLSSY) [compound 1227]	12
1228 (SSYNRSLLH) [compound 1228]	15
1264 (RINRNYYPYYI) [compound 1264]	12
1265 (INRNYYPYY) [compound 1265]	12
1278 (NYYPYYIY) [compound 1278]	16
1279 (YPYYIYKIF) [compound 1279]	12
1287 (VHFNAHFKPY) [compound 1287]	14
1288 (HFNAHFKPY) [compound 1288]	16
1295 (SQMGAHGQL) [compound 1295]	17
1296 (HGQLQTFPR) [compound 1296]	16
1345 (RVRFSLIRV) [compound 1345]	16
1347 (LMSALKWPI) [compound 1347]	17
1348 (LMSALKWPIEY) [compound 1348]	12
1370 (GAMMITFAL) [compound 1370]	14
1372 (NVSRAREFY) [compound 1372]	12
1375 (RAREFYISW) [compound 1375]	15
1379 (VVSASAINF) [compound 1379]	13
1388 (LVYELPAPF) [compound 1388]	14
1390 (QQMLTRHIY) [compound 1390]	12
1394 (SSFKCWTCHLY) [compound 1394]	14
1400 (KESAETIYTF) [compound 1400]	14

Substance	Number of Spots
1413 (ISSMSVSTFW) [compound 1413]	12
1436 (NKANKAFYI) [compound 1436]	13
1437 (KANKAFYINH) [compound 1437]	12 and 16
1454 (INHLYKFLL) [compound 1454]	12 and 18
1459 (KITSVTEFY) [compound 1459]	19
1461 (YTLLSPLQSY) [compound 1461]	13 and 17
1468 (ITYLNNMGY) [compound 1468]	13
1472 (KVDLPYHLM) [compound 1472]	16
1483 (KTIKHYEQL) [compound 1483]	12
1484 (GTSYLRMAY) [compound 1484]	14
1488 (STQFMIQYF) [compound 1488]	13
1491 (MIADAINQEF) [compound 1491]	13
1499 (AVNLLRQTF) [compound 1499]	14
1501 (ALDLSLIGFY) [compound 1501]	14
1503 (KTDPNFKNL) [compound 1503]	13
1507 (ATVSAIELEY) [compound 1507]	13
1509 (TLAQVFESF) [compound 1509]	17
1510 (FTDNAPAGHYY) [compound 1510]	15
1511 (RSLSNFQAL) [compound 1511]	17
1512 (QIYKTLLEY) [compound 1512]	21
1514 (EAAELYFRL) [compound 1514]	15
1517 (ATKKALIHF) [compound 1517]	13

Substance	Number of Spots
1519 (FGMMNQTNY) [compound 1519]	13
1523 (STAQVHLDF) [compound 1523]	14
1528 (KTYTLLTKPY) [compound 1528]	13
1531 (MVFNQLIASY) [compound 1531]	12
1543 (NIYNYDYSF) [compound 1543]	12
1544 (GSLYPTQFDY) [compound 1544]	14
1556 (QVVFHAGSLY) [compound 1556]	13
1566 (ARIYAGQGY) [compound 1566]	14
1567 (QAQEEWNMIL) [compound 1567]	13
1571 (KTVQHIEQY) [compound 1571]	14
1573 (KVIRAHNFI) [compound 1573]	12
1580 (SNMKQFCKI) [compound 1580]	12
1619 (IDFDPLVTFY) [compound 1619]	16
1627 (GTDLYQSAM) [compound 1627]	12
1628 (SAMLEFKKF) [compound 1628]	12
1630 (AMLEFKKFF) [compound 1630]	12
1631 (FTQITRQTF) [compound 1631]	12
1633 (ITRQTFMDI) [compound 1633]	14
1648 (RTLMDQPTY) [compound 1648]	14
1649 (TLMDQPTY) [compound 1649]	18
1651 (RFSRPGNNY) [compound 1651]	17
1658 (AFINSTDFLY) [compound 1658]	12

Substance	Number of Spots
1685 (NINRLMPYF) [compound 1685]	12
1693 (EVYAPYMHY) [compound 1693]	12
1701 (YTGIQSPLF) [compound 1701]	13
1706 (RLQTPIPVY) [compound 1706]	13
1718 (SSELHFYVF) [compound 1718]	15
1736 (VTQRNQNYF) [compound 1736]	13
1749 (TLDFDRMWY) [compound 1749]	15
1750 (SMSYFDGKTEY) [compound 1750]	17
1753 (YFDTFANAM) [compound 1753]	13
1759 (VQLANSSVYY) [compound 1759]	15
1761 (SVYHVQEEL) [compound 1761]	12
1767 (LLDTNTNFY) [compound 1767]	13 and 21
1783 (GMQDGIRWFY) [compound 1783]	13
1810 (KTIFNNVRY) [compound 1810]	13
1814 (YTIHYSMPY) [compound 1814]	17
1823 (YTKFFNCPF) [compound 1823]	25
1824 (SMMDFERVHY) [compound 1824]	14
1828 (RSQTECGPY) [compound 1828]	14
1830 (SVMALAKMY) [compound 1830]	12
1835 (KILGLLLAY) [compound 1835]	21
1836 (GKTMPVEFYY) [compound 1836]	17
1840 (SLANHTVKYY) [compound 1840]	14

Substance	Number of Spots
1841 (SMFKHFDNM) [compound 1841]	17
1852 (HTLIISPEF) [compound 1852]	15
1864 (SMPMSMIGPY) [compound 1864]	13
1873 (KLYTAALGVY) [compound 1873]	12
1875 (ISPRISYQF) [compound 1875]	12
1880 (FLNAYAHKL) [compound 1880]	12
1912 (KQFEMFNMVY) [compound 1912]	12
1923 (RISSELISY) [compound 1923]	13
1941 (AIEEEDIQF) [compound 1941]	12
1950 (ELVDHIFNY) [compound 1950]	16
1952 (LSKNIAAEY) [compound 1952]	17
1955 (SSAELYRKM) [compound 1955]	14
1982 (NAFEWIHFV) [compound 1982]	14
1986 (KINQRSFSF) [compound 1986]	13
1989 (RMHIYETNLY) [compound 1989]	14
1991 (KQELSRLIY) [compound 1991]	29
2037 (MCGKRNCPLY) [compound 2037]	12
2038 (CGKRNCPLYY) [compound 2038]	12
2075 (KSCYPLVFI) [compound 2075]	12
2092 (KAKIAFPPEY) [compound 2092]	17
2118 (MMQTAIQKNYF) [compound 2118]	13
2125 (TAIQKNYFR) [compound 2125]	14

Reference: patent publication US20220105170A1 (priority 2019, published 2022)
